Consider 18 compounds from patent publication US8865623B2, “Herbicidally active cyclic diones and derivatives thereof, processes for their preparation, compositions, and method of controlling weeds” (Syngenta Limited, priority 2009, dated 2014).

What all share (type): in vivo
The subject of assay [1] is Alopecurus myosuroides (ALOMY). Description: Post-emergence herbicidal activity, glasshouse pot test. As to conditions: Alopecurus myosuroides, 312 h, rate 250 g/ha, evaluated after 13 days, glasshouse, read-out: Post-emergence activity ALOMY (100=total damage to plant; 0=no damage to plant). As for the experimental part:
(§1) Seeds of a variety of test species were sown in standard soil in pots. After cultivation for one day (pre-emergence) or after 8 days cultivation (post-emergence) under controlled conditions in a glasshouse (at 24/16° C., day/night; 14 hours light; 65% humidity), the plants were sprayed with an aqueous spray solution derived from the formulation of the technical active ingredient in acetone/water (50:50) solution containing 0.5% Tween 20 (polyoxyethelyene sorbitan monolaurate, CAS RN 9005-64-5). The test plants were then grown in a glasshouse under controlled conditions in a glasshouse (at 24/16° C., day/night; 14 hours light; 65% humidity) and watered twice daily. After 13 days for pre and post-emergence, the test was evaluated (100=total damage to plant; 0=no damage to plant).
(§2) Lolium perenne (LOLPE), Alopecurus myosuroides (ALOMY), Echinochloa crus-galli (ECHCG), and Avena fatua (AVEFA).

The test system of assay [2] is Avena fatua (AVEFA). The description is as above. As to conditions: Avena fatua, 312 h, rate 250 g/ha, evaluated after 13 days, glasshouse, read-out: Post-emergence activity AVEFA (100=total damage to plant; 0=no damage to plant). The protocol: as §1, §2
Assay [3] deals with Lolium perenne (LOLPE). The description is as above. As to conditions: Lolium perenne, 312 h, rate 250 g/ha, evaluated after 13 days, glasshouse, read-out: Post-emergence activity LOLPE (100=total damage to plant; 0=no damage to plant). The protocol:
as §1, §2

The test system of assay [4] is Echinochloa crus-galli (ECHCG). Described as above. As to conditions: Echinochloa crus-galli, 312 h, rate 250 g/ha, evaluated after 13 days, glasshouse, read-out: Post-emergence activity ECHCG (100=total damage to plant; 0=no damage to plant). The protocol: as §1, §2
Assay [5] concerns Alopecurus myosuroides (ALOMY). Description: Pre-emergence herbicidal activity, glasshouse pot test. As to conditions: Alopecurus myosuroides, 312 h; Rate 250 g/ha; pre-emergence spray; evaluated after 13 days; read-out: Pre-emergence activity ALOMY (100=total damage to plant; 0=no damage to plant). The protocol:
as §1, §2

In assay [6] the test system is Avena fatua (AVEFA). The description is as above. Conditions: Avena fatua, 312 h; Rate 250 g/ha; pre-emergence spray; evaluated after 13 days; read-out: Pre-emergence activity AVEFA (100=total damage to plant; 0=no damage to plant). The protocol: as §1, §2
Assay [7] relates to Lolium perenne (LOLPE). The description is as above. As to conditions: Lolium perenne, 312 h; Rate 250 g/ha; pre-emergence spray; evaluated after 13 days; read-out: Pre-emergence activity LOLPE (100=total damage to plant; 0=no damage to plant). As for the experimental part: as §1, §2
Assay [8] relates to Echinochloa crus-galli (ECHCG). Described as above. Conditions: Echinochloa crus-galli, 312 h; Rate 250 g/ha; pre-emergence spray; evaluated after 13 days; read-out: Pre-emergence activity ECHCG (100=total damage to plant; 0=no damage to plant). As for the experimental part: as §1, §2

Regarding `CCc1ccc(Oc2cc(Cl)cc(Cl)n2)cc1C1=C(O)C(C)(C)OC(C)(C)C1=O` [Example A-145], the pest or weed control at 250 g/ha in assay [1] worked out at 20%; in the assay on Avena fatua (AVEFA) [2] it was 20%; in the assay with Lolium perenne (LOLPE) [3], 20%; in assay [4], 70%; in assay [5], 10%; with Avena fatua (AVEFA) [6], 0%. For the same compound, the pest or weed control at 250 g/ha in the assay with Lolium perenne (LOLPE) [7] was 10%; in assay [8] it was 20%.

On to `CCc1ccc(Oc2nc3ccccc3s2)cc1C1=C(O)CC(C)(C)CC1=O` [Example A-286], for which the pest or weed control at 250 g/ha in assay [1] is 100%; in the assay with Avena fatua (AVEFA) [2], 90%; with Lolium perenne (LOLPE) [3], 100%; in assay [4], 100%; in assay [5], 90%; in the assay on Avena fatua (AVEFA) [6], 40%. Besides, the pest or weed control at 250 g/ha (in the assay with Lolium perenne (LOLPE) [7]; in assay [8]) was 100% in each case.

Take `CCc1ccc(Oc2ncc(Cl)cc2[N+](=O)[O-])cc1C1=C(O)C(C)(C)OC(C)(C)C1=O` [Example A-162]: the pest or weed control at 250 g/ha in assay [1] was 80%; with Avena fatua (AVEFA) [2], 50%; with Lolium perenne (LOLPE) [3], 70%; in assay [4] it was 90%; in assay [5], 30%; in the assay on Avena fatua (AVEFA) [6], 10%. For the same compound, the pest or weed control at 250 g/ha in the assay on Lolium perenne (LOLPE) [7] came to 50%; in assay [8], 60%.

Consider `CCc1ccc(Oc2ccc(C(F)(F)F)cc2Cl)cc1C1=C(O)C(C)(C)OC(C)(C)C1=O` [Example A-99], for which the pest or weed control at 250 g/ha in assay [1] stood at 80%; in the assay on Avena fatua (AVEFA) [2], 90%; in the assay with Lolium perenne (LOLPE) [3] it was 80%; in assay [4], 100%; in assay [5] it was 60%; in the assay with Avena fatua (AVEFA) [6], 30%. For the same compound, the pest or weed control at 250 g/ha (in the assay with Lolium perenne (LOLPE) [7]; in assay [8]) was 100% throughout.

With `CCc1ccc(Oc2ccc(C(F)(F)F)c(Cl)c2)cc1C1=C(O)[C@@H]2CC[C@](C)(C1=O)C2(C)C` [Example A-315], the pest or weed control at 250 g/ha in assay [1] was determined as 40%; in the assay on Avena fatua (AVEFA) [2], 80%; in the assay with Lolium perenne (LOLPE) [3] it was 90%; in assay [4], 90%; in assay [5], 80%; with Avena fatua (AVEFA) [6], 60%. Also, the pest or weed control at 250 g/ha (with Lolium perenne (LOLPE) [7]; in assay [8]) was 100% in each case.

`CCc1ccc(Oc2cnc3cc(Cl)ccc3n2)cc1C1=C(O)CC(C)(C)CC1=O` [Example A-82]: the pest or weed control at 250 g/ha in assay [1] came to 100%; with Avena fatua (AVEFA) [2] it was 100%; with Lolium perenne (LOLPE) [3], 90%; in assay [4], 100%; in assay [5], 70%; with Avena fatua (AVEFA) [6] it was 90%. The pest or weed control at 250 g/ha (with Lolium perenne (LOLPE) [7]; in assay [8]) was 100% each time.

Turning to `CCc1ccc(Oc2ccc(F)cc2)cc1C1=C(O)CC2(CCOCC2)CC1=O` [Example A-35], the pest or weed control at 250 g/ha in assay [1] is 80%; in the assay with Avena fatua (AVEFA) [2], 90%; with Lolium perenne (LOLPE) [3] it was 80%; in assay [4] it was 100%; in assay [5] it was 90%; in the assay on Avena fatua (AVEFA) [6], 70%. Further, the pest or weed control at 250 g/ha in the assay with Lolium perenne (LOLPE) [7] was determined as 70%; in assay [8] it was 100%.

Turning to `CCc1ccc(Oc2ccc(Br)cc2)cc1C1=C(O)CC2(CCOCC2)CC1=O` [Example A-37], the pest or weed control at 250 g/ha in assay [1] was 100%; in the assay with Avena fatua (AVEFA) [2], 100%; in the assay on Lolium perenne (LOLPE) [3], 90%; in assay [4] it was 100%; in assay [5] it was 70%; in the assay with Avena fatua (AVEFA) [6] it was 70%. Besides, the pest or weed control at 250 g/ha in the assay with Lolium perenne (LOLPE) [7] came to 80%; in assay [8], 100%.

With `CCc1ccc(Oc2ccc(OC(F)(F)F)cc2)cc1C1=C(O)C(C)(C)OC(C)(C)C1=O` [Example A-242], the pest or weed control at 250 g/ha in assay [1] was determined as 100%; in the assay on Avena fatua (AVEFA) [2], 100%; in the assay with Lolium perenne (LOLPE) [3], 100%; in assay [4], 100%; in assay [5], 70%; in the assay on Avena fatua (AVEFA) [6] it was 40%. In addition, in the assay on Lolium perenne (LOLPE) [7], the pest or weed control at 250 g/ha was 80%.

Regarding `CCc1ccc(Oc2ccc(Cl)cc2)cc1C1=C(O)C(C)(C)OC(C)(C)C1=O` [Example A-4], the pest or weed control at 250 g/ha in assay [1] turned out to be 80%; in the assay with Avena fatua (AVEFA) [2], 0%; in assay [4], 100%; in assay [5], 40%; with Avena fatua (AVEFA) [6], 0%; in assay [8], 100%.

Regarding `CCc1ccc(Oc2ccc(F)c(C)c2)cc1C1=C(O)C(C)(C)OC(C)(C)C1=O` [Example A-179], the pest or weed control at 250 g/ha in assay [1] came out at 0%; with Avena fatua (AVEFA) [2], 0%; with Lolium perenne (LOLPE) [3], 20%; in assay [4], 20%; in assay [5], 0%; in the assay on Avena fatua (AVEFA) [6], 0%. Moreover, the pest or weed control at 250 g/ha with Lolium perenne (LOLPE) [7] was 0%.

With `CCc1ccc(Oc2ccccc2Cl)cc1C1=C(O)C(C)(C)OC(C)(C)C1=O` [Example A-6], the pest or weed control at 250 g/ha in assay [1] came out at 0%; with Avena fatua (AVEFA) [2], 0%; in assay [4] it was 70%; in assay [5], 0%; with Avena fatua (AVEFA) [6] it was 0%; in assay [8], 30%.

In the case of `Cc1ccc(Oc2ccc(Cl)cc2Cl)cc1C1=C(O)C(C)(C)OC(C)(C)C1=O` [Example A-2], the pest or weed control at 250 g/ha in assay [1] is 60%; with Avena fatua (AVEFA) [2], 50%; in assay [4] it was 90%; in assay [5], 0%; in the assay with Avena fatua (AVEFA) [6], 0%; in assay [8] it was 0%.

As to `CCc1ccc(Oc2cnc3cc(Cl)ccc3n2)cc1C1=C(O)[C@@H]2CC[C@](C)(C1=O)C2(C)C` [Example A-243], the pest or weed control at 250 g/ha in assay [1] worked out at 100%; in the assay with Avena fatua (AVEFA) [2], 100%; with Lolium perenne (LOLPE) [3], 100%; in assay [4], 100%; in assay [5], 90%; in the assay on Avena fatua (AVEFA) [6] it was 80%. For the same compound, the pest or weed control at 250 g/ha in the assay on Lolium perenne (LOLPE) [7] is 100%.

On to `CCc1ccc(Oc2ccc(Br)cc2F)cc1C1=C(O)C(C)(C)OC(C)(C)C1=O` [Example A-7], for which the pest or weed control at 250 g/ha stood at 90% in assay [1]; 70% in the assay on Avena fatua (AVEFA) [2]; 100% in assay [4]; 60% in assay [5]; 60% with Avena fatua (AVEFA) [6]; 100% in assay [8].

`CCc1ccc(Oc2cccc(Cl)c2)cc1C1=C(O)C(C)(C)OC(C)(C)C1=O` [Example A-5]: the pest or weed control at 250 g/ha in assay [1] worked out at 20%; with Avena fatua (AVEFA) [2], 0%; in assay [4], 90%; in assay [5] it was 0%; in the assay on Avena fatua (AVEFA) [6], 0%; in assay [8] it was 90%.

On to `Cc1ccc(Oc2ccc(Cl)cc2)cc1C1=C(O)C(C)(C)OC(C)(C)C1=O` [Example A-1], for which the pest or weed control at 250 g/ha in assay [1] came out at 20%; in the assay on Avena fatua (AVEFA) [2] it was 0%; in assay [4], 60%; in assay [5] it was 0%; in the assay on Avena fatua (AVEFA) [6] it was 0%; in assay [8], 0%.

Take `CCc1ccc(Oc2ccc(Cl)cc2C)cc1C1=C(O)C(C)(C)OC(C)(C)C1=O` [Example A-180]: the pest or weed control at 250 g/ha in assay [1] is 0%; in the assay on Avena fatua (AVEFA) [2], 0%; in the assay on Lolium perenne (LOLPE) [3] it was 10%; in assay [4] it was 30%; in assay [5], 0%; in the assay on Avena fatua (AVEFA) [6] it was 0%. Also, the pest or weed control at 250 g/ha with Lolium perenne (LOLPE) [7] was 0%.
